According to PMC7617459, “Comparative Evaluation and Profiling of Chemical Tools for the Nuclear Hormone Receptor Family 2” (ACS pharmacology & translational science, 2025):
Where two headings read alike, the source gives them in different places.

How the values were obtained:
COS-7 cells = experiment: Multiplex toxicity assay; format: cell-based; conditions: 24 h, at active concentration
Experimental: COS-7 cells (DSMZ #ACC 60) were cultured at 37°C and 5% CO2 in DMEM high glucose medium supplemented with sodium pyruvate (1 mM), penicillin (100 U/mL), streptomycin (100 µg/mL), and 10% fetal calf serum (FCS). After aspirating the wells, the cells were seeded at 1x10^5 cells per well in complete culture medium. […] Each sample was prepared in at least 4 biologically independent replicates. After incubation for 24 h, the wells were aspirated and incubated for 30 min with stimulation medium containing 1 µM NucView® 405 fluorogenic caspase-3 substrate (#10405, Biotium, Fremont, USA) and Live-or-Dye Nuc-Fix Red (0.05x, Biotium, Inc., Fremont, CA, 1691 USA) to detect apoptosis and necrosis, respectively. After incubation, a total of 6 fluorescence images per well at 10x magnification were taken to detect NucView®-positive (Ex: 381–400 nm, Em: 414–450 nm) and Live-or-Dye-positive cells (Ex: 543−566 nm, Em: 580−611 nm) using on a Tecan Spark Cyto (Tecan Group AG). Reference readings for background correction and detection of auto-fluorescence were taken at 414–450 nm prior to staining. Thereafter, wells were aspirated, the cells were incubated for 3 h with 90 µL culture medium (0.2% FCS) and 10 µL Cell Counting Kit-8 solution (CCK-8, MedChem Express #HY-K0301), and absorbance was measured at 1, 2, and 3h of incubation at 450 nm on a Tecan Spark Cyto to assess metabolic activity of the cells. Before drug administration, after the first medium exchange, 24 h after drug administration, and after fluorescence imaging cell confluence was assessed using the Tecan Spark Cyto, to account for changes in cell confluence due to drug administration and cell handling. The number of apoptotic cells, metabolic activity, and changes in cell confluence in response to drug treatment were all normalized to the vehicle control of each biological replicate individually.

TLX-regulated genes = conditions: cited from earlier work
TLX expression = conditions: cited from earlier work
TLX LBD = conditions: ITC; cited from earlier work
[1] = tested on: adipocyte-derived stem cells (ASC); experiment: Adipogenesis assay (ASC differentiation, Oil Red O); format: cell-based; conditions: 18 days
Source text: Using the small collection of NR2 modulators with sufficient reproducible on-target activity and selectivity (6, 7, 9, 11, 12, 13, 19, 21, 22, 23, 25), we next explored their application as a chemogenomics set.[161] To probe the potential of the collection to link phenotypic effects and target in a complex cellular setting, we determined compound effects on the differentiation of adipocyte-derived stem cells (ASC). Under cyclic treatment with insulin, isobutylmethylxanthine, dexamethasone and the PPARγ agonist pioglitazone,[162] these cells develop into adipocytes and accumulate large amounts of fat. However, adipogenesis is orchestrated by many transcription factors[163] and could potentially involve a role of NR2 receptors. […] There was no uniform effect of RXR modulators on fat deposition in adipocytes, possibly due to diverse off-targets of 6 and 11. […] Among TLX ligands the agonist 19 increased the amount of fat and lipid particle size, pointing to enhanced adipogenesis. The inverse TLX agonist 21 had no effect. PNR ligand effects in the adipogenesis model were generally weak.
Differentiation experiments of ASC52telo, hTERT cells (ATCC® SCRC-4000™) were conducted according to a previously described procedure.[162] In brief, the cells were grown in DMEM high-glucose medium supplemented with 10% fetal calf serum, sodium pyruvate (1 mM), penicillin (100 U/mL), and streptomycin (100 μg/mL) at 37 °C and 5% CO2. The cells were seeded in standard culture medium at a density of 5x10^4 cells per well in 96-well plates. After adherence overnight, cells were incubated with differentiation medium, composed of standard culture medium supplemented with human insulin (10 µg/mL, #I3536, Merck KgaA, Darmstadt, Germany), dexamethasone (1 µM, #D4902, Merck KgaA, Darmstadt, Germany,), isobutylmethylxanthine (0.5 mM, #I5879, Merck KgaA, Darmstadt, Germany), DMSO (final concentration 0.1%) and the respective test compounds or pioglitazone at 1 µM. The cells were kept in a differentiation medium for 48-72 h followed by a 24 h incubation with standard culture medium supplemented with 10 µg/mL insulin only. This cycle was repeated five times accounting for a total differentiation time of 18 days. The indicated test compounds at 0.1% DMSO or 0.1% DMSO alone as vehicle control were supplemented freshly with every medium exchange. After the 18-day differentiation procedure and test compound treatment, the cells were washed with phosphate buffered saline (PBS) once and fixed with formalin (10%, stabilized with methanol, 100 µL per well, #15071, Morphisto GmbH, Offenbach am Main, Germany) for 15 min at room temperature. The fixing solution was aspirated, and the fixed cells were washed twice with 50% ethanol solution with the second wash step incubating for 15 min at room temperature to equilibrate the specimens for staining. Oil Red O (#O0625, Merck KgaA, Darmstadt, Germany) was prepared at 0.5% (w/v) in 50% ethanol (v/v) and 5% salicylic acid (w/v), filtered with grade 595 Whatman® filter paper (#311611, Schleicher & Schuell GmbH, London, U.K.) and a 0.2 µm syringe filter (FP 30/0,2 CA-S, #10462200, Schleicher & Schuell GmbH, London, U.K.). Upon equilibration, specimens were incubated with 100 µL of 0.5% Oil Red O solution for 45 min at room temperature before the staining solution was aspirated and the wells were washed once with 50% (v/v) ethanol solution and three times with ddH2O. Specimens were kept in ddH2O for subsequent analysis. For each well, two pictures were taken at a 4x magnification using a Motic®AE31E inverted microscope and a Moticam 1080 (Motic Hong Kong Ltd.). Images were corrected for skewed illumination, Oil Red O crystal precipitates were identified and removed, and the resulting processed pictures were dichromized to extract gray values from the red channel using CellProfiler (Version 4.2.6). […]

TLX [2] = conditions: cited from earlier work
TLX [3] = target: T1, TLX (Homo sapiens, UniProt Q9Y466); experiment: Gal4-hybrid reporter gene assay TLX; format: cell-based; conditions: selected test concentration (Figure 3)
T1 construct: encoding the hinge region and the LBD of the canonical isoform of the respective human nuclear receptors; expressed in transfected cells; host or cells: HEK293T
T1 sequence (Q9Y466 155-383 limits assumed): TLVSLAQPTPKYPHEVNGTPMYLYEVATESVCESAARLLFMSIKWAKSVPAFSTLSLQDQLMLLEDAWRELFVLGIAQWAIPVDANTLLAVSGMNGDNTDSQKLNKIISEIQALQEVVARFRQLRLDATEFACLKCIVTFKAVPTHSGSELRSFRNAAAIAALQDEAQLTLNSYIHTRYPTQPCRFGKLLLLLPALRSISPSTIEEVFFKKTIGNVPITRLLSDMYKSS
Experimental: (§1) HEK293T cells (German Collection of Microorganisms and Cell Culture GmbH, DSMZ) were cultured in Dulbecco’s modified Eagle’s medium (DMEM), high glucose supplemented with 10% fetal calf serum (FCS), sodium pyruvate (1 mM), penicillin (100 U/mL), and streptomycin (100 μg/mL) at 37 °C and 5% CO2 and seeded in 96-well plates (3 × 10^4 cells/well). The medium was changed to Opti-MEM without supplements, and the cells were transiently transfected with one pFA-CMV-hNR-LBD clone, pFR-Luc, and pRL-SV40 using Lipofectamine LTX reagent (Invitrogen, Thermo Fisher Scientific) according to the manufacturer’s instructions. Five hours after transfection, cells were incubated with the test compounds in Opti-MEM supplemented with penicillin (100 U/mL), streptomycin (100 μg/mL), and 0.1% DMSO. Each sample was set up in duplicates and tested in at least three independent experiments. After 16 h incubation, luciferase activity was measured using the Dual-Glo Luciferase Assay System (Promega) according to the manufacturer’s protocol on a Tecan Spark luminometer (Tecan Deutschland GmbH, Crailsheim, Germany). Firefly luminescence was divided by Renilla luminescence and multiplied by 1000 resulting in relative light units (RLUs) to normalize for transfection efficiency and cell growth. Fold activation was obtained by dividing the mean RLU of the test compound by the mean^a RLU of the untreated control, and relative activation was calculated by dividing the fold activation of a test sample by the fold activation of the respective reference agonist. Antagonistic effects were evaluated by coincubation of the test compound with the respective reference ligand.

nuclear receptors = experiment: Selectivity profiling in Gal4-hybrid reporter gene assay panel; format: cell-based, human; conditions: at active concentration
Experimental: Compounds were tested at concentrations around EC90 according to the literature or at the highest nontoxic concentration (from the multiplex toxicity assay). […] (b) Selectivity profiling of NR2 modulators in a representative panel of nuclear receptors outside the NR2 family. […] Effects <5% of the respective reference ligands were considered as not relevant and omitted. Only effects are shown that are statistically significant against VP16 ctrl (Figure S3); n = 3.
as §1

full-length TLX = conditions: reporter gene assay; cited from earlier work
RXRγ = conditions: cited from earlier work; for EC50: reporter gene assay
RXRα [4] = conditions: cited from earlier work; for EC50: reporter gene assay
RXRβ = conditions: cited from earlier work
[5] = tested on: fructose-1,6-bisphosphatase 1 (FBP1); parameters: method as in PMID 33114319; conditions: HepG2 cells; cited from earlier work
HNF4α = target: T2, HNF4α (Homo sapiens, UniProt P41235); experiment: Gal4-hybrid reporter gene assay HNF4α; conditions: 30 µM, HEK293T
T2 sequence (P41235 147-377 limits assumed): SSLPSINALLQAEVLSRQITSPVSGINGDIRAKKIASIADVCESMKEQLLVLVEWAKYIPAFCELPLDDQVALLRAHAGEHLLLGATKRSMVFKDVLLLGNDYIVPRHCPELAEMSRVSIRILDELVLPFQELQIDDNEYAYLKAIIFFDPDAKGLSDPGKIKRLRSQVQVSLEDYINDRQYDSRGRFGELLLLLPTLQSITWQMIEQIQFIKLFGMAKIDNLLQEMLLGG
Experimental: as §1

human insulin promoter = conditions: insulin promoter assay; cited from earlier work
RXRα [6] = target: T3, RXRα (Homo sapiens, UniProt P19793); experiment: Gal4-hybrid reporter gene assay RXRα
T3 sequence (P19793 227-458 limits assumed): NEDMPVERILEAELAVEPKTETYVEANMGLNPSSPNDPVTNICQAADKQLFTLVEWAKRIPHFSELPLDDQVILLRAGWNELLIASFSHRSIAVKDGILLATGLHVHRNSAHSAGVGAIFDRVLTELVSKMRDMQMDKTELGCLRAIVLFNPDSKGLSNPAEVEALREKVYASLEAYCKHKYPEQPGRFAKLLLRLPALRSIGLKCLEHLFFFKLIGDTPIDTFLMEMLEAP
Experimental: as §1

TLX [7] = conditions: read-out: EC50 TLX activation; cellular reporter gene assay; cited from earlier work
TLX [8] = conditions: cited from earlier work; remark: listed apart in the source
[9] = read-out: RXRγ cellular activity/potency
[10] = reporter gene assay, read-out: RXRβ cellular activity/potency
[11] = reporter gene assays, read-out: IC50 (counteracting TLX repressor activity)

In the case of CCCCOc1cc(C(=O)Nc2cc(-n3cnc(C)c3)cc(C(F)(F)F)c2)c2ccccc2n1 [compound 19], the cytotoxicity (COS-7 cells) is given as “non-toxic”, the SIRT1 expression (TLX-regulated genes) is given as “induced SIRT1 expression” and the TLX expression levels (TLX expression) is given as “no effect”. The Kd (TLX LBD) was 500 nM, the “Oil red O positive area (amount of fat)” value [1] was “increased” and the “fat droplet (particle) size” value [1] was “increased”. For the same molecule, the EC50 (TLX [2]; read-out: Gal4-TLX EC50) was 250 nM, the IC50 (TLX [2]; reporter gene assay, read-out: IC50 (first value of cell)) was 250 nM and the TLX modulation (TLX [3]) was “TLX activation”. The “selectivity over other nuclear receptors” value (nuclear receptors) was “selective over other nuclear receptors” and the EC50 (full-length TLX) was 700 nM.
In the case of O=C(O)[C@@H]1C[C@H]1c1nc(-c2ccccc2)c(-c2cc(C(F)(F)F)cc(C(F)(F)F)c2)o1 [compound 7], the EC50 (RXRγ; [9]) is listed as 4 nM, the EC50 (RXRα [4]; read-out: RXRα cellular activity/potency) is listed as 5 nM and the “Oil red O positive area (amount of fat)” value [1] is listed as “affected neither”. For the same molecule, the “fat droplet (particle) size” value [1] was “affected neither” and the EC50 (RXRβ; [10]) was 1.4 nM.
For O=C(O)c1cc(-c2ccccc2)ccc1O [compound 4], the “expression of HNF4 target gene FBP1” value [5] is listed as “diminished expression”.
In the case of CC(Cc1cccc(C(F)(F)F)c1)NCCOC(=O)c1ccccc1 (stereo not shown) [compound 2, benfluorex], the “effects on HNF4 activity” value (HNF4α) is given as “no effects” and the EC50 (human insulin promoter) is given as 24400 nM.
For CCCCCOc1cc2c(cc1-c1cc(/C=C/C(=O)O)ccc1O)C(C)(C)CCC2(C)C [compound 12], the IC50 (RXRβ; reporter gene assay, no precise value reported, read-out: RXRb cellular activity/potency (antagonist)) is given as about 50 nM and the “effect on bexarotene-induced RXR activation” value (RXRα [6]; 1 µM, coincubation with bexarotene) is given as “robustly blocked”.
For CC(C)NCC(O)COc1cccc2ccccc12 (stereo not shown) [compound 18, propranolol], the “TLX-regulated SIRT1 and PTEN/TET3 expression” value (TLX-regulated genes; qRT-PCR) is listed as “modulated”.
For CCN(CCCc1ccccc1)CCCc1ccccc1 [compound 3, alverine], the “effects on HNF4 activity” value (HNF4α) is given as “no effects” and the EC50 (human insulin promoter) is given as 3500 to 6800 nM.
For Cn1c(=O)c2[nH]c(-c3ccccc3Cl)nc2n(C)c1=O [compound 20, 8-(2-chlorophenyl)-theophylline], the Kd (TLX LBD) is listed as 800 nM and the IC50 (TLX [2]; [11]) is listed as 500 nM.
In the case of CC1=C2[C@H](/C=C(\C)C(=O)O)CC[C@@H](C)[C@H]2CC1 [compound 9, Valerenic acid], the RXRγ fold activation (RXRγ) is listed as 4 fold act, the EC50 (RXRγ; read-out: RXRγ EC50) is listed as 43000 nM and the RXRα fold activation (RXRα [4]) is listed as 9 fold act. For the same molecule, the EC50 (RXRα [4]; read-out: RXRα EC50) was 27000 nM, the RXRβ fold activation (RXRβ) was 69 fold act and the EC50 (RXRβ; reporter gene assay, read-out: RXRβ EC50) was 5200 nM. For the same molecule, the RXRα activation (RXRα [6]; 10 µM) was “weak RXRα activation”.
For Cn1c(=O)[nH]c2nc[nH]c2c1=O [1-methylxantine], the IC50 (TLX [2]; [11]) is given as 9000 nM.
For Cn1c(=O)c2[nH]c(-c3ccccc3)nc2n(C)c1=O [compound 21, 8-Phenyl-theophylline], the cytotoxicity (COS-7 cells) was “non-toxic”, the “Oil red O positive area (amount of fat)” value [1] was “no effect” and the “fat droplet (particle) size” value [1] was “no effect”. For the same molecule, the TLX modulation (TLX [3]) was “inverse agonism” and the “selectivity over other nuclear receptors” value (nuclear receptors) was “selective over other nuclear receptors”.
In the case of CC(C)c1c(CN(C)C(C)Cc2ccccc2)n(C)n(-c2ccccc2)c1=O (stereo not shown) [compound 14], the EC50 (TLX [7]) is listed as 9200 nM and the Kd (TLX [8]) is listed as 6600 nM.
